Results as given in PMC2744931, “Glutamate Uptake Triggers Transporter-Mediated GABA Release from Astrocytes” (PLoS ONE, 2009).

Tests used:
human NPMVs = test: [3H]GABA uptake in human brain tissue NPMVs; format: biochemical; conditions: 100 µM NNC-711; hippocampus, cortical gray and white matter, spinal cord white matter, choroid plexus, corpus callosum
Procedure: (§1) Cerebral cortices of 4–6 weeks old male Wistar rats (Toxicoop, Hungary) and frozen human brain tissue samples (Hungarian Brain Tissue Bank, Budapest) were used to prepare NPMV fractions, that contain numerous membrane vesicles of different sizes and shapes, a few intact synaptosomes and free mitochondria. […] Afterward, preincubated solution was incubated with [^3H]GABA (10 nM, Amersham) and GABA (90 nM, Sigma) for 1 min. In case of [^3H]β-alanine uptake, incubation solution contained 100 nM [^3H]β-alanine (Amersham) and 900 nM β-alanine (Sigma). After the incubation, samples were immediately filtered through glass fiber filters and washed twice with ice-cold HEPES buffer. The [^3H]GABA level inside the plasma membrane vesicles was determined by liquid scintillation method. Although this method is generally used to measure GABA uptake, we applied it to follow GABA release due to the simplicity and reliability of the assay. We also determined GABA release by preloading [^3H]GABA into NPMV vesicles and measuring the [^3H]GABA level in the intracellular and extracellular milieu. […] Non-specific uptake was determined in the presence of 1 mM guvacine. The radioactivity of samples was counted in HiSafe 3 (Perkin Elmer) scintillation mixture.

hippocampus = conditions: cited from earlier work
[1] = tested on: GABA transport in rat cerebrocortical NPMV (GAT-2/3); test: [3H]GABA uptake in rat cerebrocortical native plasma membrane vesicles (NPMV) in the presence of 100 µM NNC-711; format: biochemical
Procedure: as §1

rat hippocampus = test: In vivo microdialysis and HPLC amino acid detection in the hippocampus
Procedure: Male Wistar rats (300–400 g) were anaesthetized with halothane (1% in air) and microdialysis probes were implanted into the ventral hippocampus (A: −5.0, L: 5.0, V: −8.0) as described previously. To minimize tissue damage, the final position of the probes was reached slowly, in not less than 20 min. Perfusion of artificial cerebrospinal fluid, containing 144 mM NaCl, 3 mM KCl, 1 mM MgCl2, 2 mM CaCl2 (pH 7.4), was performed at a rate of 1 µl/min. The dialysate samples during 20 min were stored at −20°C. To establish the background amino acid concentration, each experiment started with the collection of three control samples with <10% variation. NNC-711 was applied bilaterally for 60 min followed by the simultaneous application of t-PDC and NNC-711 for 60 min. Concentration of amino acids was measured by pre-column derivatization of primary amino acids with orthophthalaldehyde (OPA, Sigma). Derivatization was performed at pH 10.4 in the presence of mercaptoethanol. OPA-derivatized amino acids were detected with fluorescence detector excitation wavelength 340 nm and emission wavelength 440 nm. Because of the instability of OPA derivatives, the HPLC technique was automated on an HP 1100 series system. Amino acids were separated on HP Hypersyl ODS reversed-phase columns (200×2.1 mm) filled with 5 µm C-18 spherical packing material. Eluent A was 0.1 M phosphate buffer containing 0.5% (vol/vol) tetrahydrofuran (Merck), pH 5.6, while eluent B contained 70% acetonitrile (Merck) in eluent A, pH 5.6. The gradient profile was: 12% B at 0 min, 23% B at 9 min, 36% B at 18 min, 100% B at 20 min, 100% B at 25 min and 12% B at 30 min. The column equilibration time was 8 min. External standards of 10 µM amino acids were injected after every 20 samples. Chromatograms were evaluated with HP Chem-Station software. Concentration of GABA measured in dialysate samples collected during drug applications were related to averaged GABA concentration of control samples collected for an hour prior to drug application and were given as percent changes.

GAT-2/3 = test: [3H]β-alanine uptake in rat cerebrocortical NPMV fraction; format: biochemical; conditions: n = 3
Procedure: as §1

[2] = tested on: acute rat hippocampal slices; test: [3H]GABA efflux from acute rat hippocampal slices (microvolume superfusion); format: cell-based
Procedure: Radiolabeling of 400 µm thick acute slices was conducted in 200 µl of ACSF in a glass tube. […] To preferentially label the cytosolic over the vesicular pools, incubation of slices at 30°C lasted for 10 min [54]. Slices were washed with fresh ACSF containing GABA-T inhibitors, thereafter placed in a custom-built closed micro-volume (50 µl) chamber secured in a water bath thermostated at 30°C [55]. […] The superfusate was collected in 0.5 ml fractions. After washing for 10 min, 10 fractions were collected to define the basal release of radioactivity (‘pre-stimulus’). At this point, the hippocampal slice was exposed to 100 µM Glu for a period of 10 min (‘drug application’), followed by further 10 min of washing with ACSF (‘washout’). Radioactivity of each 0.5 ml fraction counted in 3 ml HiSafe 3 scintillation mixture was expressed as the percentage of the actual radioactivity content of the slice (fractional release). Fractional release data from individual slices were normalized to a first order exponential curve (obtained by fitting the pre-stimulus and the last 3 washout values). Normalized percent efflux data from fractions of ‘pre-stimulus’ (1–10 min) versus ‘drug application’ (11–20 min) periods were averaged and compared by statistical analysis.

rat cerebrocortical NPMV = test: Total extracellular GABA by HPLC in rat cerebrocortical NPMV samples; format: biochemical; conditions: 300 µM Glu, n = 3
rat cortex NPMVs = test: [3H]GABA release from NPMV vesicles preloaded with [3H]GABA; format: biochemical; conditions: 10 min incubation with Glu, n = 3
Procedure: as §1

Glu decarboxylase (GAD) = test: NMR (13C-HSQC) of [13C]GABA formation from [13C]Glu in rat cortical NPMV fraction; format: biochemical
Procedure: NPMV samples for NMR experiments were prepared as described before. NPMV fractions from the whole cortex were homogenized in 1 ml HEPES buffer containing 300 µM [^13C]Glu and were incubated at 30°C for 30 min. The homogenate was then centrifuged at 3500 g for 15 min. The supernatant (extracellular fraction) was stored and the pellet (intracellular fraction) was suspended in 1 ml HEPES buffer and frozen (−80°C) and thawed 3 times. In the NMR experiments on brain slices, 13 hippocampal slices were put in a 2 ml centrifuge tube and the ACSF was replaced with 1 ml ACSF containing 300 µM [^13C]Glu. The slices were incubated at 37°C for 30 min. Afterwards, the samples were frozen (−80°C) and thawed 3 times.
NMR experiments were carried out at 30°C on a Varian NMR SYSTEM (600 MHz for ^1H) four-channel spectrometer using a 5 mm indirect detection triple resonance (^1H^13C^15N) z-axis gradient probe. Samples (200 µl) were placed into 5 mm Shigemi NMR tubes. Gradient-enhanced ^1H/^13C heteronuclear correlation spectra (^13C-HSQC) were acquired with a ^1H spectral width of 9600 Hz and 2048 complex points, zero-filled to a total of 4096. […] Gaussian and exponential weighting functions were applied in the F2 dimension, while the indirectly detected dimensions were Gaussian weighted only. […]

GAT-3 = tested on: GAT-3; set-up: method as in PMID 17408599, PMID 16274841; conditions: cited from earlier work

In the case of `O=C(O)[C@@H]1CN[C@@H](C(=O)O)C1` (relative stereo) [t-PDC, L-trans-pyrrolidine-2,4-dicarboxylate], the “inhibition of [3H]GABA uptake in human brain tissue samples” value (human NPMVs) is given as “able to inhibit [^3H]GABA uptake in all investigated areas”, the “neuronal damage after in vivo administration in the hippocampus” value (hippocampus) is given as “did not produce cell death” and the “neuronal damage in vivo” value (hippocampus; very high concentration (25–100 mM)) is given as “did not evoke neuronal damage in vivo”. For the same molecule, the “effect on GABA transport in rat cortical NPMV” value ([1]; 10 min preincubation, 100 µM NNC-711 (Figure 1B)) was “able to affect GABA transport”, the “[Arginine]o in the rat hippocampus in vivo” value (rat hippocampus; control for non-specific release, n = 10) was 94±32 % of control and the “[GABA]o in the rat hippocampus in vivo” value (rat hippocampus; microdialysis application, t-PDC applied together with NNC-711, n = 10) was 233±33 % of control.
For `N[C@@H](CCC(=O)O)C(=O)O` [Glu, L-glutamate], the “inhibition of [3H]GABA uptake in human brain tissue samples” value (human NPMVs) was “able to inhibit [^3H]GABA uptake in all investigated areas”, the “effect on cytosolic β-alanine level ([3H]β-alanine uptake)” value (GAT-2/3) was “reduce cytosolic level” and the “elevation of [GABA]o ([3H]GABA efflux)” value ([2]; 100 µM Glu in low-[Ca2+]/high-[Mg2+] buffer, n = 5) was 148.3±15.5 % of pre-stimulus control. For the same molecule, the “elevation of [GABA]o ([3H]GABA efflux)” value ([2]; 100 µM Glu in the presence of glutamate receptor antagonists (DL-AP5 50 µM, CNQX 10 µM, (S)-MCPG 500 µM), n = 7) was 128.5±13.4 % of pre-stimulus control, the “elevation of [GABA]o ([3H]GABA efflux)” value ([2]; 100 µM Glu, control conditions, n = 6) was 149±14 % of pre-stimulus control and the “share of average [GABA]o increase remaining” value ([2]; Glu-induced release in the presence of Glu receptor antagonists) was 58%. The “increase of the extracellular GABA level (HPLC)” value (rat cerebrocortical NPMV; SCB-treated rats) was 35±6%, the “increase of the extracellular GABA level (HPLC)” value (rat cerebrocortical NPMV; control rats) was 46±3% and the IC50 ([1]; 10 min preincubation, 100 µM NNC-711, rat cerebrocortical NPMV, n = 7, read-out: IC50, inhibition of [3H]GABA uptake) was 11 ± 0.1 µM. The “inhibition of GABA uptake” value ([1]; preincubation of vesicles with Glu for 10 minutes, in the presence of NNC-711) was 52% and the IC50 (rat cortex NPMVs) was 13.1 ± 1.6 µM.
With `NNC(N)=O` [SCB, semicarbazide] the “effect on [13C]GABA formation” value (Glu decarboxylase (GAD); SCB treatment, rat cortical NPMV fraction) was “completely blocked”, the “elevation of [GABA]o ([3H]GABA efflux)” value ([2]; Glu-induced release, slices of SCB-treated animals (100 mg/kg i.p., 2 mM present), n = 7) was 145±14 % of pre-stimulus control and the “modulation of the effect of Glu on GABA transport / cytosolic GABA level in rat cortical NPMV” value ([1]; 100 µM NNC-711 present) was “did not affect [^3H]GABA release”.
In the case of `[15NH2][13C@@H]([13CH2][13CH2][13C](=O)O)[13C](=O)O` [[^13C]Glu, [U-^13C/^15N]Glu], the “share of extracellularly applied [13C]Glu converted to [13C]GABA and released” value (Glu decarboxylase (GAD); 300 µM [13C]Glu, 30 min, rat cortical NPMV) is reported as ~5%.
For `CN1C(=O)CC(=O)N(c2ccccc2)c2cc(Cl)ccc21` [clobazam], the “GAT-3 expression in the hippocampus” value (GAT-3) is given as “up-regulate GAT-3 expression”.
In the case of `CC[C@@H](C(N)=O)N1CCCC1=O` [levetiracetam], the “GAT-3 expression in the hippocampus” value (GAT-3) is listed as “up-regulate GAT-3 expression”.
